Source: ChEMBL document CHEMBL1201862, “PubChem BioAssay data set” (2004)
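1) Cells in 96-well plates. 2) Compound, 48 h, 5 concentrations. 3) Linear interpolation between surrounding doses. 4) Unreached endpoint = highest concentration. The concentration for 50% growth inhibition is given as GI50.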 Calls of active or inactive are those of the source. Rule as the data show it: active = GI50 up to about 1.1 µM and inactive = higher.

Key:
Assay in all cases: NCI tumour cell line growth inhibition, 48 h
786-0 = system: 786-0
NCI-H23 = system: NCI-H23
HT-29 = system: HT-29
DU-145 = system: DU-145
SK-MEL-2 = system: SK-MEL-2
TK-10 = system: TK-10
SNB-19 = system: SNB-19
EKVX = system: EKVX
UACC-62 = system: UACC-62
MDA-MB-435 = system: MDA-MB-435
OVCAR-4 = system: OVCAR-4
HOP-92 = system: HOP-92
OVCAR-3 = system: OVCAR-3
MDA-MB-231 = system: MDA-MB-231
SNB-75 = system: SNB-75
NCI-H226 = system: NCI-H226
M14 = system: M14
A498 = system: A498
SF-295 = system: SF-295
MDA-N = system: MDA-N
SW-620 = system: SW-620
BT-549 = system: BT-549
IGROV-1 = system: IGROV-1
HCT-15 = system: HCT-15
MCF7 = system: MCF7
MOLT-4 = system: MOLT-4
HL-60 = system: HL-60
SF-268 = system: SF-268
Hs-578T = system: Hs-578T
A549 = system: A549
SK-MEL-5 = system: SK-MEL-5
LOX IMVI = system: LOX IMVI
SF-539 = system: SF-539
SN12C = system: SN12C
U-251 = system: U-251
PC-3 = system: PC-3
RPMI-8226 = system: RPMI-8226
NCI-H460 = system: NCI-H460
HCT-116 = system: HCT-116
SR = system: SR
UO-31 = system: UO-31
SK-OV-3 = system: SK-OV-3
RXF 393 = system: RXF 393
SK-MEL-28 = system: SK-MEL-28
UACC-257 = system: UACC-257
KM12 = system: KM12
NCI-H522 = system: NCI-H522
T47D = system: T47D
ACHN = system: ACHN
OVCAR-8 = system: OVCAR-8
COLO 205 = system: COLO 205
CAKI-1 = system: CAKI-1
HOP-62 = system: HOP-62
OVCAR-5 = system: OVCAR-5
Malme-3M = system: Malme-3M
NCI/ADR-RES = system: NCI/ADR-RES

## COc1cc(CC2C(=O)OCC2Cc2ccc(OC)c(OC)c2)ccc1O (stereo unspecified)
786-0
  GI50: > 100 µM (inactive)
NCI-H23
  GI50: 10.9 µM (inactive)
HT-29
  GI50: > 100 µM (inactive)
DU-145
  GI50: > 100 µM (inactive)
SK-MEL-2
  GI50: > 100 µM (inactive)
TK-10
  GI50: > 100 µM (inactive)
SNB-19
  GI50: > 100 µM (inactive)
EKVX
  GI50: > 27.8 µM (inactive)
UACC-62
  GI50: > 100 µM (inactive)
MDA-MB-435
  GI50: > 100 µM (inactive)
OVCAR-4
  GI50: > 100 µM (inactive)
HOP-92
  GI50: 29.5 µM (inactive)
OVCAR-3
  GI50: > 91.8 µM (inactive)
MDA-MB-231
  GI50: 74.3 µM (inactive)
SNB-75
  GI50: > 60.5 µM (inactive)
NCI-H226
  GI50: > 100 µM (inactive)
M14
  GI50: > 100 µM (inactive)
A498
  GI50: > 100 µM (inactive)
SF-295
  GI50: 8.85 µM (inactive)
MDA-N
  GI50: > 100 µM (inactive)
SW-620
  GI50: > 100 µM (inactive)
BT-549
  GI50: > 55.2 µM (inactive)
IGROV-1
  GI50: > 75.3 µM (inactive)
HCT-15
  GI50: > 100 µM
MCF7
  GI50: > 100 µM (inactive)
MOLT-4
  GI50: 4.76 µM (inactive)
HL-60
  GI50: > 100 µM (inactive)
SF-268
  GI50: > 100 µM (inactive)
Hs-578T
  GI50: > 100 µM (inactive)
A549
  GI50: > 71.8 µM (inactive)
SK-MEL-5
  GI50: 4.42 µM (inactive)
LOX IMVI
  GI50: 30.8 µM (inactive)
SF-539
  GI50: > 100 µM (inactive)
SN12C
  GI50: > 100 µM (inactive)
U-251
  GI50: > 100 µM (inactive)
PC-3
  GI50: 99.1 µM (inactive)
RPMI-8226
  GI50: > 100 µM (inactive)
NCI-H460
  GI50: > 100 µM (inactive)
HCT-116
  GI50: > 100 µM (inactive)
SR
  GI50: > 100 µM (inactive)
UO-31
  GI50: > 100 µM (inactive)
SK-OV-3
  GI50: > 100 µM (inactive)
RXF 393
  GI50: > 100 µM (inactive)
SK-MEL-28
  GI50: > 100 µM (inactive)
UACC-257
  GI50: > 50.6 µM (inactive)
KM12
  GI50: > 100 µM (inactive)
NCI-H522
  GI50: > 100 µM (inactive)
T47D
  GI50: 28.6 µM (inactive)
ACHN
  GI50: > 88.9 µM (inactive)
OVCAR-8
  GI50: > 100 µM (inactive)
COLO 205
  GI50: > 100 µM (inactive)
CAKI-1
  GI50: > 100 µM (inactive)
HOP-62
  GI50: > 100 µM (inactive)
OVCAR-5
  GI50: > 100 µM (inactive)
Malme-3M
  GI50: > 100 µM (inactive)
NCI/ADR-RES
  GI50: 43.6 µM (inactive)
